Assay type in all cases: cell-based, mouse
Data set [1] relates to FABP. The data set can be described thus: Real-time quantitative PCR, FABP mRNA in 3T3-L1 adipocytes. To be noted: 15 and 30 μM, qPCR. How it is done:
(§1) Total RNA extraction reagent (TIANGEN, China) was used to extract total RNA from 3T3-L1 adipocytes. Use 1st strand cDNA kit (Vazyme biotechnology) for reverse transcription into cDNA. SYBR Green PCR Master Mix Kit (Monad, China) reagent and CFX-1000 Touch instrument ([…]) were used to detect the mRNA level of adipocyte browning genes (Ucp-1 and PRDM16) and transcription factors (Fabp, Ppar-γ and C-EBPα). The following conditions were used for reverse transcription: 5 min at 25° C., 15 min at 50° C., and 5 min at 85° C. Amplification: initial denaturation at 95° C. for 30 seconds, followed by denaturation at 95° C. for 5 seconds and 59° C. for 30 seconds (40 cycles). The β-actin was used as a reference gene to standardize the qPCR reaction. The relative expression of genes was calculated based on the average Ct value between samples. Relative expression level=2^{[Cttarget gene−Ct (β-actin)]aloesin treatment group−[Cttarget gene−Ct(β-actin)] 3T3-L1adipocyte]}.
For orientation: In qPCR the cycle at which signal appears reflects the starting amount.

In data set [2] the test system is adiponectin. Briefly: ELISA, adiponectin in supernatant of 3T3-L1 adipocytes. To be noted: 15 μM, 48 hours. The protocol:
(§2) The 3T3-L1 adipocytes were treated with aloesin for 48 hours, then the supernatant was collected, and the levels of adiponectin and IL-1β in the supernatant were detected with an ELISA kit (Proteintech, China). The ELISA reagent operation was carried out according to the manufacturer's instructions.
(In an ELISA, binding on a coated surface is turned into a signal by an enzyme label.)

Data set [3] concerns adiponectin. The data set can be described thus: Real-time quantitative PCR, adiponectin mRNA in 3T3-L1 adipocytes. The settings on record: 15 μM, qPCR.
For data set [4], the system named is IL-1β. Briefly: ELISA, IL-1β in supernatant of 3T3-L1 adipocytes. The settings on record: 15 and 30 μM, 48 hours. How it is done: as §2
The subject of data set [5] is 3T3-L1 adipocytes. Briefly: Lipid accumulation in 3T3-L1 adipocytes (Oil Red O staining). The settings on record: 15 and 30 μM. How it is done: (§3) Mouse 3T3-L1 preadipocytes were inoculated with high glucose culture medium (H-DMEM, Hyclon) containing 10% fetal bovine serum (Gibco) and antibiotics (100 U/mL penicillin G and […] streptomycin) at a density of 1×10^4 /mL in an incubator at 37° C. and 5% CO2 for 72 hours. In order to induce the differentiation of 3T3-L1 preadipocytes, when 80% cells are fused, on day 0, growth medium (GM) containing 10% fetal bovine serum, 10 μg/mL insulin (sigma), 1 μM dexamethasone (sigma), 0.5 mM isobutyl-1-Methylxanthine (sigma) was added therein. On the second day, the medium was replaced with a high-glycemic medium containing 10% calf serum and 10 μg/mL insulin. On the 10th day, a large number of lipid droplets accumulated during the differentiation of pre-adipocytes.
(§4) The differentiated adipocytes were washed 3 times with PBS, fixed with 10% formaldehyde for 1 hour, then washed 3 times with PBS again, dried for 15 to 30 minutes and stained with Oil Red O working solution for 2 hours. Wash 2 times and 3 times with 60% isopropanol (IPA) and double distilled water respectively. A Zeiss fluorescence microscope (Tokyo, Japan) was used to collect images. 100% IPA extracts Oil Red O, and the absorbance at 490 nm was measured.
After 3T3-L1 preadipocytes were induced to differentiate into adipocytes, aloesin (15 and 30 μM) was added to the adipocytes and cultured for 24 h and 48 h respectively.

For data set [6], the system named is 3T3-L1 preadipocytes. Briefly: MTT cell viability of 3T3-L1 preadipocytes. The settings on record: 15 and 30 μM aloesin, 24 h and 48 h. How it is done: as §3
Cell viability was determined by MTT, 3T3-L1 preadipocytes were seeded in 96-well plates at a density of 1×10^4 /mL, cultured in an incubator for 24 hours, and then replaced with a medium respectively containing 10, 15, 30 and 60 μM aloesin to continuously cultivate for 24 h or 48 h. 0.5% MTT was added to the cells, after incubating for 1 hour at 37° C., the MTT solution was removed, and DMSO was added to dissolve. The absorbance at 570 nm was measured using an enzyme-labeled instrument (Molecular Devices, CA, USA). Cell viability (%) is expressed as a percentage relative to untreated control cells.

Data set [7] deals with PRDM16. The data set can be described thus: Real-time quantitative PCR, PRDM16 mRNA in 3T3-L1 adipocytes. To be noted: qPCR. How it is done: as §1
Data set [8] relates to C-EBPα. Briefly: Real-time quantitative PCR, C-EBPα mRNA in 3T3-L1 adipocytes. To be noted: 15 and 30 μM, qPCR. How it is done:
as §1

In data set [9] the test system is 3T3-L1 preadipocytes. The data set can be described thus: Differentiation of preadipocytes after aloesin pretreatment (Oil Red O staining). To be noted: pretreated with 15 and 30 μM for 24 h and 48 h, then differentiated for 10 days. How it is done: as §3, §4
3T3-L1 pre-adipocytes were pre-incubated by the aloesin with concentration of 15 and 30 μM for 24 h and 48 h, respectively. […]

The subject of data set [10] is PPAR-γ. Briefly: Real-time quantitative PCR, PPAR-γ mRNA in 3T3-L1 adipocytes. The settings on record: 15 and 30 μM, qPCR. How it is done:
as §1

Data set [11] relates to UCP-1. The data set can be described thus: Real-time quantitative PCR, UCP-1 mRNA in 3T3-L1 adipocytes. The settings on record: qPCR. How it is done: as §1

In the case of `CC(=O)Cc1cc(=O)c2c(C)cc(O)c([C@@H]3O[C@H](CO)[C@@H](O)[C@H](O)[C@H]3O)c2o1` [aloesin], the “expression of FABP (mRNA)” value in data set [1] is “did not affect”. For the same compound, the “release of adiponectin in adipocytes” value in [2] is recorded as “enhance”. In addition, in [3], the “mRNA expression of adiponectin in adipocytes” value is listed as “enhance”. Also, the “release of IL-1β in adipocytes” value in data set [4] was “reduce”. The “lipid accumulation of adipocytes” value in [5] (48 h, compared with the control group) is “significantly reduce”. Moreover, the “lipid accumulation in 3T3-L1 adipocytes” value in [5] (treatment for 24 hours) is “did not affect”. In addition, in [6], the pre-adipocytes viability result is on record as “did not influence”. For the same compound, in data set [7], the “expression of browning gene PDRM16 (mRNA)” value was “increase”. In addition, the “expression of the transcription factor C-EBPα (mRNA)” value in [8] was “increase”. In addition, the “differentiation of 3T3-L1 preadipocytes” value in data set [9] was “did not affect”. The “expression of PPAR-γ (mRNA)” value in data set [10] was “did not affect”. The “expression of browning gene UCP-1 (mRNA)” value in data set [11] was “increase”.

(Values after patent US20230142062A1, “THE APPLICATION OF ALOESIN IN THE PREPARATION OF PRODUCTS FOR PREVENTING OR TREATING OBESITY” (HAINAN MEDICAL UNIVERSITY, priority 2020, published 2023).)
